Measurements taken from US20110111980A1, “METHOD FOR PROFILING DRUG COMPOUNDS” (priority 2008, published 2011).

Key:
[1] = tested on: UT-SCC-9, UT-SCC-27, UT-SCC-54C, and UT-SCC-76; test: PamChip kinase inhibition profiles of 4 patient derived head and neck squamous cell carcinoma cell lines; type: biochemical; details: selected set of peptides, FIG. 3b
Experimental: Cells were harvested and were lysed in Mammalian Extraction Buffer (M-PER, Pierce) containing phosphatase and protease inhibitors (HALT, Pierce). Five microliter of the lysis solution was pipetted into a reaction mixture composed of 1×ABL buffer (New England Biolabs, cat.nr B6050S), 0.1% Bovine Serum Albumin, 100 μM ATP, 20 μg/ml phosphotyrosine antibody to an end volume of 40 microliter. Before incubation a blocking step was carried out on the substrate arrays with 0.2% bovine serum albumin. […] Real time data were obtained by measuring fluorescence of the bound anti-phosphotyrosine antibody after each 5 cycles. Image quantification and data processing was conducted with dedicated Pamgene software (Evolve and Bionavigator).
The 4 cell lines chosen, UT-SCC-9, UT-SCC-27, UT-SCC-54C, and UT-SCC-76 are patient derived cell lines, known to respond differently to radiation (in a model for therapy in head and neck cancer, squamous cell carcinomas, especially). […] The data shown are from a selected set of peptides of which the ratios of phosphorylation in the absence (0) and presence of the inhibitor are represented.

[2] = tested on: Non Small Cell Lung Cancer (NSCLC) tissue; test: PamChip kinase activity of NSCLC tumor tissue lysates with and without inhibitor; type: biochemical; details: 1 μmol/L inhibitor, short vs long survival patients, data not shown

## Cc1ccc(-c2nn(C(C)(C)C)c3ncnc(N)c23)cc1 [PP1]
[1]
  inhibition profiles (ratios of phosphorylation in the absence and presence of the inhibitor), differences between cell lines: pronounced differences

## COc1cc2ncnc(Nc3ccc(F)c(Cl)c3)c2cc1OCCCN1CCOCC1 [Gefitinib]
[2]
  differences between the phosphorylation profiles with and without the protein kinase inhibitor: a number of essential differences
